# Laboratory results reported in article PMC6379706, “Characterization of the interactions of chemically-modified therapeutic nucleic acids with plasma proteins using a fluorescence polarization assay” (Nucleic Acids Research, 2018).
# Tests used:
# [1] = target: T1, human serum albumin (Homo sapiens, UniProt P02768); experiment: fluorescence polarization, direct titration of dye with protein; format: binding
# T1 construct: gene ALB; purchased human albumin, EMD Millipore (Calbiochem)
# [2] = target: T2, transferrin (Homo sapiens, UniProt P02787); experiment: as above; format: binding
# T2 construct: gene TF; purchased from Sigma Aldrich
# T2 sequence (P02787 20-698): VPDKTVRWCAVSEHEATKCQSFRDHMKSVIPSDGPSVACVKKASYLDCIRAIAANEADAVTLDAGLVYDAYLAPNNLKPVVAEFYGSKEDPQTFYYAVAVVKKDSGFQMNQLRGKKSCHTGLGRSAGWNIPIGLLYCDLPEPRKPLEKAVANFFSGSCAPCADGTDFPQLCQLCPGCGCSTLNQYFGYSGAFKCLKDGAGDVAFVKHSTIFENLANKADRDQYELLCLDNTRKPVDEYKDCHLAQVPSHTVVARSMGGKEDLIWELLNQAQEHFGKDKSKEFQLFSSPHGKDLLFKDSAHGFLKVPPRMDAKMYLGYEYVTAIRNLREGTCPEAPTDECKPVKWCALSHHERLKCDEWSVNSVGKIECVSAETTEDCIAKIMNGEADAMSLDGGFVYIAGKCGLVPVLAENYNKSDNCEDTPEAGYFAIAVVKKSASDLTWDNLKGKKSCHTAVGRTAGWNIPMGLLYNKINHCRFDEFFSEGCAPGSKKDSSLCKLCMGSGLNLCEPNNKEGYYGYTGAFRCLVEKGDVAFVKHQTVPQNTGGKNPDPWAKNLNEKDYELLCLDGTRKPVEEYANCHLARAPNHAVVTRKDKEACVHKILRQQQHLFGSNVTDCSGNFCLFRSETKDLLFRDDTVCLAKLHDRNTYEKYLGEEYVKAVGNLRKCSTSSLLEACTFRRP
# T1 sequence (P02768 25-609): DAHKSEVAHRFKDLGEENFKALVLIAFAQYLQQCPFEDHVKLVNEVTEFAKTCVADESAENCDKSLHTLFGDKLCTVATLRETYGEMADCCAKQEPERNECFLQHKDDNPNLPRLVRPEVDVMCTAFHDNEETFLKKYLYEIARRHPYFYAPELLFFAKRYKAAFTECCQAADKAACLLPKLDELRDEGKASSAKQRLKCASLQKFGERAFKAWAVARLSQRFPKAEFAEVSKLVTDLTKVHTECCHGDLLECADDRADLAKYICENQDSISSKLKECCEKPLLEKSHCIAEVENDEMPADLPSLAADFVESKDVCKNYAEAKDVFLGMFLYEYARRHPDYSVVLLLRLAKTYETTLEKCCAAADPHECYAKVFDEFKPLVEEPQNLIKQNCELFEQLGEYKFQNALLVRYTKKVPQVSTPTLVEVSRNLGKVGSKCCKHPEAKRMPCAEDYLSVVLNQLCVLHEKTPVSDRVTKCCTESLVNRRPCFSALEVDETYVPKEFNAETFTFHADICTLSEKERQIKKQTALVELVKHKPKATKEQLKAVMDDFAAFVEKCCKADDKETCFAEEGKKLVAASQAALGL
smiles,measurement,setting,value
CN1/C(=C/C=C/C=C/C2=[N+](CCCCCC(=O)O)c3ccccc3C2(C)C)C(C)(C)c2ccccc21 [Cy5],Kd,[1],44.8 µM
same,Kd,[2],46.1 µM
CN1/C(=C/C=C/C=C/C2=[N+](CCCCCC(=O)O)c3ccc(S(=O)(=O)O)cc3C2(C)C)C(C)(C)c2cc(S(=O)(=O)O)ccc21 [sCy5],Kd,[1],568 µM
same,Kd,[2],2020 µM
O=C(O)c1ccccc1-c1c2ccc(=O)cc-2oc2cc(O)ccc12 [fluorescein],Kd,[1],138 µM
same,Kd,[2],502 µM
N=c1ccc2c(-c3ccc(C(=O)O)cc3C(=O)O)c3ccc(N)c(S(=O)(=O)O)c3oc-2c1S(=O)(=O)O [Alexa Fluor 488],Kd,[1],791 µM
same,Kd,[2],380 µM
